Measured values published in US6673372B1, “Crystalline Efavirenz” (Bristol-Myers Squibb Pharma Company, priority 1998, dated 2004).

Assay: Relative stability of the crystalline forms of Efavirenz
Type: physicochemical
Description: Five Forms designated as Form 1, Form 2, Form 3, form 4, Form 5 have been identified. Each Form is distinguishable from the other forms by x-ray powder diffraction (XRD) and differential scanning calorimetry (DSC). Each form can be isolated in substantially pure form under the conditions described. Further, the forms may be interconverted by procedures taught herein.
It has a melting point of about 138° C. to about 140° C., which is the highest of the four forms. Due to its increased stability, it is commonly used for drug formulation. All other forms may be converted into Form 1 during drying at about 60° C. to about 110° C. Conversion and drying is preferably done in a dryer oven at about 70° C. to about 110° C. under reduced pressure. More preferred is about 75° C. to about 85° C. Form 5 is converted to Form 1 by heating to 95° C under reduced pressure. Forms 2 and 3 may also be converted into Form 1 using a hydrocarbon slurry at about 65° C. to about 75° C. Heptane is the most preferred hydrocarbon for this conversion. Form 4, however, may not convert to Form 1 under these conditions because it is soluble at about 70° C. Form 1 may be directly crystallized from heptane when the saturated solution is seeded at about 60° C. to about 75° C. and held at about this temperature until Form 1 starts crystallizing.
The thermal properties of Efavirenz were characterized with differential scanning calorimetry using a TA Instruments DSC 910, with data analysis via a TA Instruments Thermal Analyzer 2100. Samples were placed in sealed aluminum pans for analysis with an empty aluminum pan serving as the reference. Heating rates of 5° C. per minute or 10° C. per minute were employed over a temperature range of 25° C. to 200° C. The instrument was calibrated with a indium standard.

O=C1Nc2ccc(Cl)cc2[C@@](C#CC2CC2)(C(F)(F)F)O1 [Form 2, (S)-6-chloro-4-cyclopropylethynyl-4-trifluoromethyl-1,4-dihydro-2H-3,1-benzoxazin-2-one]
stability (inferred from the melting point observed by differential scanning calorimetry): exceptional stability

O=C1Nc2ccc(Cl)cc2[C@@](C#CC2CC2)(C(F)(F)F)O1 [Form 3, (S)-6-chloro-4-cyclopropylethynyl-4-trifluoromethyl-1,4-dihydro-2H-3,1-benzoxazin-2-one]
stability of the form in solution slurries (solution slurries of Efavirenz at room temperature): most stable form

O=C1Nc2ccc(Cl)cc2[C@@](C#CC2CC2)(C(F)(F)F)O1 [Form 1, (S)-6-chloro-4-cyclopropylethynyl-4-trifluoromethyl-1,4-dihydro-2H-3,1-benzoxazin-2-one]
thermodynamic stability among the crystalline forms (solid forms compared, highest melting point): most thermodynamically stable form

O=C1Nc2ccc(Cl)cc2[C@@](C#CC2CC2)(C(F)(F)F)O1 [Form 5, (S)-6-chloro-4-cyclopropylethynyl-4-trifluoromethyl-1,4-dihydro-2H-3,1-benzoxazin-2-one]
thermodynamic stability among the crystalline forms (below 40° C.): most thermodynamically stable crystalline form
